Source: ChEMBL document CHEMBL1148938, “Quinolone alkaloids with nitric oxide production inhibitory activity from Orixa japonica” (2004)
The source made the active and inactive calls. The calls are words filed in the database; no cut-off is given here.

Key:
[1] = test system: RAW264.7; test: Inhibition of LPS/IFN-gamma-induced NO production in mouse RAW264.7 cells at 30 uM after 18 hrs; format: functional, cell-based
[2] = test system: RAW264.7; test: Inhibition of LPS/IFN-gamma-induced NO production in mouse RAW264.7 cells at 10 uM after 18 hrs; format: functional; settings: RAW264.7, 18 h
[3] = test system: RAW264.7; test: Inhibition of LPS/IFN-gamma-induced NO production in mouse RAW264.7 cells at 50 uM after 18 hrs; format: functional; settings: RAW264.7, 18 h

Row | SMILES | Activity [1] | inhibition at 10 µM [2] | inhibition at 50 µM [3]
1 | COc1nc2c3c(ccc2c(OC)c1CC(=O)C(C)C)OCO3 | inactive |  | 
2 | COc1c(CC(=O)C(C)C)c(=O)n(C)c2c(OC)cccc12 [ORIXALONE A] |  | 47.3% | 54.8%
3 | COc1c2ccoc2nc2c3c(ccc12)OCO3 | inactive |  | 
4 | COc1nc2c3c(ccc2c(OC)c1C[C@H]1OC1(C)C)OCO3 | inactive |  | 
